Test results taken from ChEMBL document CHEMBL3885881, “DrugMatrix”.

Species: Rattus norvegicus
Type: toxicity, organism-based, Sprague-Dawley
Details: in vivo, po, 24 h, route oral GAVAGE, time 1 day, […]; for ABSOLUTE BASOPHIL / ABSOLUTE EOSINOPHIL / ABSOLUTE LYMPHOCYTE / ABSOLUTE MONOCYTE / BASOPHIL / EOSINOPHIL / ERYTHROCYTE COUNT / HEMATOCRIT / HEMOGLOBIN / LEUKOCYTE COUNT / LYMPHOCYTE / MEAN CORPUSCULAR HEMOGLOBIN / MEAN CORPUSCULAR HEMOGLOBIN CONCENTRATION / MEAN CORPUSCULAR VOLUME / MONOCYTE / NEUTROPHIL / PLATELET COUNT: tissue Blood; for ALANINE AMINOTRANSFERASE / ALBUMIN / ALKALINE PHOSPHATASE / ASPARTATE AMINOTRANSFERASE / BLOOD UREA NITROGEN / CARBON DIOXIDE / CHLORIDE / CHOLESTEROL / CREATINE PHOSPHOKINASE / CREATININE / GLUCOSE / LACTATE DEHYDROGENASE / LIPASE / PHOSPHORUS / POTASSIUM / SODIUM / TOTAL BILIRUBIN / TOTAL PROTEIN / URIC ACID: tissue Plasma
[1] = 0 mg/kg, vehicle control, dose level Control

Description: DrugMatrix - Regimen: Single

Molecule `Clc1ccc(Cl)cc1` [1,4-DICHLOROBENZENE] has an ABSOLUTE BASOPHIL [1] of 46.7 cells/µL, an ABSOLUTE EOSINOPHIL [1] of 130 cells/µL and an ABSOLUTE LYMPHOCYTE [1] of 8720 cells/µL. The ABSOLUTE MONOCYTE [1] was 140 cells/µL, the BASOPHIL [1] was 0.43% and the EOSINOPHIL [1] was 1.33%. For the same molecule, the “ERYTHROCYTE COUNT” value [1] was 6.45 x10E6/uL, the HEMATOCRIT [1] was 42.2% and the HEMOGLOBIN [1] was 13.33 G/DL. The “LEUKOCYTE COUNT” value [1] was 10.59 x10E3/uL, the LYMPHOCYTE [1] was 82.13% and the “MEAN CORPUSCULAR HEMOGLOBIN” value [1] was 20.67 pg. For the same molecule, the “MEAN CORPUSCULAR HEMOGLOBIN CONCENTRATION” value [1] was 31.6 G/DL, the “MEAN CORPUSCULAR VOLUME” value [1] was 65.4 fL and the MONOCYTE [1] was 1.37%. For the same molecule, the NEUTROPHIL [1] was 14.3%, the “PLATELET COUNT” value [1] was 1048.67 x10E3/uL and the “ALANINE AMINOTRANSFERASE” value [1] was 44 u/L. For the same molecule, the ALBUMIN [1] was 3.93 G/DL, the “ALKALINE PHOSPHATASE” value [1] was 551.33 u/L and the “ASPARTATE AMINOTRANSFERASE” value [1] was 97 u/L. For the same molecule, the “BLOOD UREA NITROGEN” value [1] was 13.5 mg/dL, the “CARBON DIOXIDE” value [1] was 37.33 mmol/L and the CHLORIDE [1] was 102.33 MEQ/L. For the same molecule, the CHOLESTEROL [1] was 83 mg/dL, the “CREATINE PHOSPHOKINASE” value [1] was 365.33 u/L and the CREATININE [1] was 0.4 mg/dL. For the same molecule, the GLUCOSE [1] was 189 mg/dL, the “LACTATE DEHYDROGENASE” value [1] was 170.33 u/L and the LIPASE [1] was 10.67 u/L. It also gave a PHOSPHORUS [1] of 11.53 mg/dL, a POTASSIUM [1] of 5.63 MEQ/L and an SODIUM [1] of 144.33 MEQ/L. For the same molecule, the “TOTAL BILIRUBIN” value [1] was 0.4 mg/dL, the “TOTAL PROTEIN” value [1] was 6.27 G/DL and the “URIC ACID” value [1] was 0.87 mg/dL. For the same molecule, the ABSOLUTE BASOPHIL (900 mg/kg, dose level High) was 10 cells/µL, the ABSOLUTE EOSINOPHIL (900 mg/kg, dose level High) was 23.3 cells/µL and the ABSOLUTE LYMPHOCYTE (900 mg/kg, dose level High) was 4230 cells/µL. The ABSOLUTE MONOCYTE (900 mg/kg, dose level High) was 80 cells/µL, the BASOPHIL (900 mg/kg, dose level High) was 0.2% and the EOSINOPHIL (900 mg/kg, dose level High) was 0.5%. For the same molecule, the “ERYTHROCYTE COUNT” value (900 mg/kg, dose level High) was 6.97 x10E6/uL, the HEMATOCRIT (900 mg/kg, dose level High) was 46.93% and the HEMOGLOBIN (900 mg/kg, dose level High) was 15 G/DL. For the same molecule, the “LEUKOCYTE COUNT” value (900 mg/kg, dose level High) was 5.04 x10E3/uL, the LYMPHOCYTE (900 mg/kg, dose level High) was 83.5% and the “MEAN CORPUSCULAR HEMOGLOBIN” value (900 mg/kg, dose level High) was 21.5 pg. The “MEAN CORPUSCULAR HEMOGLOBIN CONCENTRATION” value (900 mg/kg, dose level High) was 31.97 G/DL, the “MEAN CORPUSCULAR VOLUME” value (900 mg/kg, dose level High) was 67.33 fL and the MONOCYTE (900 mg/kg, dose level High) was 1.67%. The NEUTROPHIL (900 mg/kg, dose level High) was 13.93%, the “PLATELET COUNT” value (900 mg/kg, dose level High) was 1227 x10E3/uL and the “ALANINE AMINOTRANSFERASE” value (900 mg/kg, dose level High) was 45.33 u/L. For the same molecule, the ALBUMIN (900 mg/kg, dose level High) was 3.87 G/DL, the “ALKALINE PHOSPHATASE” value (900 mg/kg, dose level High) was 421.33 u/L and the “ASPARTATE AMINOTRANSFERASE” value (900 mg/kg, dose level High) was 99.33 u/L. For the same molecule, the “BLOOD UREA NITROGEN” value (900 mg/kg, dose level High) was 12.67 mg/dL, the “CARBON DIOXIDE” value (900 mg/kg, dose level High) was 34.67 mmol/L and the CHLORIDE (900 mg/kg, dose level High) was 103 MEQ/L. The CHOLESTEROL (900 mg/kg, dose level High) was 65.67 mg/dL, the “CREATINE PHOSPHOKINASE” value (900 mg/kg, dose level High) was 827.67 u/L and the CREATININE (900 mg/kg, dose level High) was 0.5 mg/dL. The GLUCOSE (900 mg/kg, dose level High) was 188.67 mg/dL, the “LACTATE DEHYDROGENASE” value (900 mg/kg, dose level High) was 235.33 u/L and the LIPASE (900 mg/kg, dose level High) was 15.67 u/L. For the same molecule, the PHOSPHORUS (900 mg/kg, dose level High) was 13.87 mg/dL, the POTASSIUM (900 mg/kg, dose level High) was 6 MEQ/L and the SODIUM (900 mg/kg, dose level High) was 142.67 MEQ/L. The “TOTAL BILIRUBIN” value (900 mg/kg, dose level High) was 0.8 mg/dL, the “TOTAL PROTEIN” value (900 mg/kg, dose level High) was 6.33 G/DL and the “URIC ACID” value (900 mg/kg, dose level High) was 0.7 mg/dL.
